This is an account of results in US6284789A, “Formation and composition of new optically active compounds” (The Research Foundation of State University of New York, priority 1999, dated 2001).

Data set [1] concerns antitumor activity. The note with it: background; cited from earlier work.
The subject of data set [2] is standard panel of 12 human tumor cell lines. Nature of the data set: Hollow fiber assay, preliminary in vivo testing. Also on record: species or system human tumor cell lines in mice. The note with it: i.p. injection once daily, 4 doses, 2 dose levels. The method, then: Preliminary in vivo testing was conducted by the hollow fiber assay on the oxabicyclooctane and the dioxatricyclodecanes identified as sufficiently active in the large scale in vitro cell screens. Each compound is tested against a standard panel of 12 human tumor cell lines, including NCI-H23, […], MDA-MB-231, MDA-MB-435, SW-620, COLO 205, LOX IMVI, UACC-62, OVCAR-3, OVCAR-5, U251, and SF-295. The cell lines are cultivated in RPMI-1640 containing 10% FBS and 2 mM glutamine. On the day preceding hollow fiber preparation, the cells are given a supplementation of fresh medium to maintain log phase growth. […] On the day of implantation, samples of each tumor cell line is quantitated for viable cell mass by a stable endpoint MTT assay so that the time 0 cell mass is known. Thus, the cytostatic and cytocidal capacities of the test compound can be assessed. […] Each agent is assessed by intraperitoneal injection at 2 dose levels with 3 mice/dose/experiment. […] The optical density of each sample is determined spectropphotomnetrically at 540 nm and the mean of each treatment group is calculated. The percent net cell growth in each treatment group is calculated and compared to the percent net cell growth in the vehicle treated controls. Each compound is assessed in a total of 4 experiments (3 cell lines/experiment×4 experiments=12 cell lines). […]

In data set [3] the test system is leukemias and solid tumors. The note with it: background; cited from earlier work.
Data set [4] deals with tolpoisomerase II. The note with it: increased single and double strand breaks in DNA, background; cited from earlier work.
Data set [5] deals with tubulin / microtubule assembly. The note with it: background; cited from earlier work.
The test system of data set [6] is 60 human tumor cell line screen. Kind of data set: NCI 60 human tumor cell line screen, in vitro antiproliferative activity (sulforhodamine B assay). The class given is cell-based. The note with it: for Percentage of cell lines affected at the given concentration: at the GI50 bound or range given on the same line of Table 3. The procedure:
The NCI […] Screening Procedure is described in Monks et al., J. Natl. Cancer Inst., 83: […], as are the origins and processing of the cell lines. In summary, cell suspensions that are diluted according to the particular cell type and the expected target cell density (5000-40,000 cells per well based on cell growth characteristics) are added by pipet (100 μL) into 96-well microtiter plates. Inoculates are allowed a preincubation period of 24 hours at 37° C. for stabilization. Dilutions at twice the intended test concentration were added at time zero in 100 μL aliquots to the microtiter plate wells. Usually, test compounds are evaluated at five 10-fold dilutions. In routine testing, the highest well concentration is 10^-4 M, but for the standard agents the highest well concentration used depends on the agent. Incubations last for 48 hours in 5% CO2 atmosphere and 100% relative humidity. The cells are assayed by using the sulforhodamine B assay. A plate reader is used to read the optical densities, and a microcomputer processes the optical densities into the special concentration parameters.

Data set [7] has as its system cell division. As to conditions: background; cited from earlier work.
For data set [8] the following is noted: background; cited from earlier work.
In data set [9] the test system is nucleoside transport in mammalian cells. As to conditions: background; cited from earlier work.
In data set [10] the test system is antiviral activity. The note with it: background; cited from earlier work.

Like-named read-outs stand apart in the source and are kept apart here. Some results are limits rather than exact numbers.

Take `COc1cc([C@H]2c3cc(O)c(OC)cc3C[C@H]3C(=O)OC[C@H]23)ccc1O` [ACON, α-Conidendrin]: the “Antitumor / biological activity” value in data set [1] is “biologically inactive”.
Regarding `COc1cc([C@]23OC[C@H](Cc4cc5c(cc42)OCO5)[C@@H]3CO)cc(OC)c1OC` [oxabicyclooctane], the “Intraperitoneal score, hollow fiber assay” value in data set [2] (i.p. fiber implants) is given as 14. In [2] (s.c. fiber implants), the “Subcutaneous score, hollow fiber assay” value turned out to be 2.
For the molecule `COc1cc([C@@H]2c3cc4c(cc3[C@@H](O[C@@H]3O[C@@H]5CO[C@@H](c6cccs6)O[C@H]5[C@H](O)[C@H]3O)[C@H]3COC(=O)[C@H]23)OCO4)cc(OC)c1O` [teniposide], the “Effectiveness in the treatment of leukemias and solid tumors” value in [3] was “effective in the treatment of a variety of leukemias and solid tumors”. Besides, the “Interaction and inhibition of topoisomerase II” value in data set [4] was “interaction and inhibition of the enzyme tolpoisomerase II”. Also, the “Inhibition of microtubule assembly” value in data set [5] is “not inhibitors of microtubule assembly”.
Take `COc1ccc([C@]23OC[C@H](Cc4cc(OC)c(OC)cc42)[C@@H]3CO)cc1OC` [No. 5]: in [6] (60 human tumor cell lines, 48 h, for the percentage of cell lines given beside it, read-out: GI50 (growth inhibition, 50%), GL50 [sic] in the source), the GI50 (usually the concentration giving 50% growth inhibition) is above 100 µM. Also, the “Percentage of cell lines affected at the given concentration” value (“Percentage of cell lines affected” for short) in [6] was 96%.
On to `COc1cc([C@@H]2c3cc4c(cc3[C@H](O)[C@H]3COC(=O)[C@@H]23)OCO4)cc(OC)c1OC` (stereo in doubt) [picropodophyllotoxin], for which, in data set [1], the “Antitumor / biological activity” value is “biologically inactive”.
Regarding `COc1cc([C@]23OC[C@H](Cc4cc5c(cc42)OCO5)[C@@H]3CO)cc(OC)c1OC` [No. 2], the “Percentage of cell lines with the GI50 range” value in data set [6] (GI50 ranging from less than 10^-8 to 10^-5 molar) stood at 26%. The GI50 in [6] (observed for 26% of cell lines, read-out: GI50 range observed) is 0.01 to 10 µM.
With `COc1cc([C@@H]2c3cc4c(cc3[C@H](O)[C@H]3COC(=O)[C@H]23)OCO4)cc(OC)c1OC` [PT, podophyllotoxin], the “Arrest of cell division” value in data set [7] was “arrest of cell division at the mitotic stage of the cell cycle”. The “Toxicity” value in data set [8] is recorded as “highly toxic”. The “Antitumor / biological activity” value in data set [1] was “has antiviral and antitumor activity”. Moreover, the “Inhibition of nucleoside transport” value in [9] is “inhibit nucleoside transport in mammalian cells”. Also, the “Antiviral activity” value in [10] is “has antiviral and antitumor activity”. Further, in data set [5], the “Inhibition of microtubule assembly” value was “inhibiting the assembly of tubulin into microtubules”.
On to `COc1cc([C@H]2c3cc(O)c(OC)cc3C[C@@H]3C(=O)OC[C@H]23)ccc1O` [BCON, β-conidendrin], for which the “Antitumor / biological activity” value in data set [1] was “biologically inactive”.
Regarding “7-acetoxy-6-methoxytetralin-1-one [compound 87]”, the “Percentage of cell lines affected” value in [6] was 93%.
Consider `COc1cc([C@@H]2c3cc4c(cc3[C@@H](O[C@@H]3O[C@@H]5CO[C@@H](C)O[C@H]5[C@H](O)[C@H]3O)[C@H]3COC(=O)[C@H]23)OCO4)cc(OC)c1O` [etoposide], for which the “Effectiveness in the treatment of leukemias and solid tumors” value in data set [3] was “effective in the treatment of a variety of leukemias and solid tumors”. The “Interaction and inhibition of topoisomerase II” value in data set [4] is “interaction and inhibition of the enzyme tolpoisomerase II”. Besides, the “Inhibition of microtubule assembly” value in data set [5] is “not inhibitors of microtubule assembly”.
With `COc1ccc([C@]23OC[C@H](Cc4cc(OC)c(OC)cc42)[C@@H]3COC(C)=O)cc1OC` [No. 6], the “Percentage of cell lines affected” value in data set [6] was determined as 10%.
